Results published in ChEMBL document CHEMBL5338719, “Recent advance on pleiotropic cholinesterase inhibitors bearing amyloid modulation efficacy” (Eur J Med Chem, 2022).

Key:
Acetylcholinesterase [1] = target: T1, Acetylcholinesterase (Homo sapiens, UniProt P22303); assay: Inhibition of human AChE
Cholinesterase [2] = target: T2, Cholinesterase (Homo sapiens, UniProt P06276); assay: Inhibition of human BChE
[3] = target: T3, Amyloid-beta precursor protein (Homo sapiens, UniProt P05067); assay: Inhibition of amyloid beta 42 (unknown origin) fibrillization at 44 uM relative to control
Acetylcholinesterase [4] = target: T4, Acetylcholinesterase (Electrophorus electricus, UniProt O42275); assay: Inhibition of electric eel AChE using acetylthiocholine iodine as substrate by Ellman's method
Beta-secretase 1 [5] = target: T5, Beta-secretase 1 (Homo sapiens, UniProt P56817); assay: Inhibition of BACE1 (unknown origin) at 50 uM by FRET assay relative to control
[6] = target: T3, Amyloid-beta precursor protein; assay: Inhibition of amyloid beta 1 to 42 (unknown origin) aggregation at 50 uM by ThT binding assay relative to control
[7] = target: T3, Amyloid-beta precursor protein; assay: Inhibition of amyloid beta 42 (unknown origin) aggregation at 100 uM relative to control
[8] = target: T3, Amyloid-beta precursor protein; assay: Inhibition of amyloid beta 42 (unknown origin) self aggregation at 10 uM relative to control
Acetylcholinesterase [9] = target: T4, Acetylcholinesterase; assay: Inhibition of electric eel AChE
Cholinesterase [10] = target: T6, Cholinesterase (Equus caballus, UniProt P81908); assay: Inhibition of equine BChE
Beta-secretase 1 [11] = target: T5, Beta-secretase 1; assay: Inhibition of BACE1 (unknown origin)
[12] = target: T3, Amyloid-beta precursor protein; assay: Inhibition of amyloid beta (25 to 35) (unknown origin) aggregation at 10 uM relative to control
Cholinesterase [13] = target: T6, Cholinesterase; assay: Inhibition of equine BChE using butyrylthiocholine iodide incubated for 3 mins by Ellman's method
Acetylcholinesterase [14] = target: T4, Acetylcholinesterase; assay: Inhibition of electric eel AChE by Ellman's method
Beta-secretase 1 [15] = target: T5, Beta-secretase 1; assay: Inhibition of BACE1 (unknown origin) at 50 uM by FRET-based enzyme assay relative to control
Acetylcholinesterase [16] = target: Acetylcholinesterase (Torpedo californica, UniProt P04058); assay: Inhibition of pacific electric ray AChE; design: species or system Tetronarce californica
[17] = target: T3, Amyloid-beta precursor protein; assay: Inhibition of amyloid beta 42 (unknown origin) aggregation at 80 uM relative to control
[18] = target: T3, Amyloid-beta precursor protein; assay: Inhibition of amyloid beta 42 (unknown origin) aggregation at 25 uM by Thioflavin T-based fluorescence assay relative to control
Acetylcholinesterase [19] = target: T4, Acetylcholinesterase; assay: Inhibition of electric eel AchE using acetylthiocholine as substrate by Ellman's method
Cholinesterase [20] = target: T6, Cholinesterase; assay: Inhibition of equine BChE using butyrylthiocholine as substrate by Ellman's method
[21] = target: Microtubule-associated protein tau (Homo sapiens) (UniProt P10636); assay: Inhibition of tau (306 to 336 residue) (unknown origin) aggregation at 50 uM incubated overnight by ThT fluorometric assay relative to control
Acetylcholinesterase [22] = target: T1, Acetylcholinesterase; assay: Inhibition of human erythrocyte AChE using ATC iodide as substrate preincubated for 5 mins followed by substrate addition measured Ellmans method
Cholinesterase [23] = target: T2, Cholinesterase; assay: Inhibition of human […] BChE using BTC iodide as substrate preincubated for 5 mins followed by substrate addition measured Ellmans method
[24] = target: T3, Amyloid-beta precursor protein; assay: Inhibition of amyloid beta 1 to 42 (unknown origin) self aggregation at 50 uM for 24 hrs by ThT fluorometric assay relative to control
Acetylcholinesterase [25] = target: T7, Acetylcholinesterase (Rattus norvegicus, UniProt P37136); assay: Inhibition of rat cortex homogenate AChE by Ellman's method; type: tissue-based
T7 sequence (P37136 whole entry): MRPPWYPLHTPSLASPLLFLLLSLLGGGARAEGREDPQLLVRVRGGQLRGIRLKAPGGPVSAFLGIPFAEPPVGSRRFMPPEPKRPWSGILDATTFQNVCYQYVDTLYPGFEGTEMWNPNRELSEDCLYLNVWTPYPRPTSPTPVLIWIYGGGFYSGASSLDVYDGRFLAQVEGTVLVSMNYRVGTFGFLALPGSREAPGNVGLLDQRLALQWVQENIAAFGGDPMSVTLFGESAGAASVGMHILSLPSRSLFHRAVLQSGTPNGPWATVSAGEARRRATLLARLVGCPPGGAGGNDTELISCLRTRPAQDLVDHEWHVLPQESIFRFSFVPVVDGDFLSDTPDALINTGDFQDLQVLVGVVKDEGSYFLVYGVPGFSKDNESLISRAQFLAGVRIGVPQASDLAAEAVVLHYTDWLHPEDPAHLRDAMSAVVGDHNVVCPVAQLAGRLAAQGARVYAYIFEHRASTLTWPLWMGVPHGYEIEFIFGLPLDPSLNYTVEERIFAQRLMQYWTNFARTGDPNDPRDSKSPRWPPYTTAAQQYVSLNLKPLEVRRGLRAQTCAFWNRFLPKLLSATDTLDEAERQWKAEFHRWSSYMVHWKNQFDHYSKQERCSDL

[26] = target: T3, Amyloid-beta precursor protein; assay: Inhibition of amyloid beta 1 to 42 (unknown origin) self induced aggregation at 25 uM by ThT fluorescence assay relative to control
[27] = target: T3, Amyloid-beta precursor protein; assay: Inhibition of amyloid beta 42 (unknown origin) aggregation at 25 uM relative to control
Acetylcholinesterase [28] = target: T4, Acetylcholinesterase; assay: Inhibition of electric eel AChE incubated for 15 mins by Ellman's method
Cholinesterase [29] = target: T6, Cholinesterase; assay: Inhibition of equine BChE incubated for 15 mins by Ellman's method
Beta-secretase 1 [30] = target: T5, Beta-secretase 1; assay: Inhibition of BACE1 (unknown origin) expressed in purified baculovirus using RhEVNLDAEFK-Quencher as substrate incubated at 50 uM for 90 mins in dark relative to control
Acetylcholinesterase [31] = target: T1, Acetylcholinesterase; assay: Inhibition of human erythrocyte AChE using […] as substrate preincubated for 5 mins followed by substrate addition measured Ellmans method
[32] = target: T3, Amyloid-beta precursor protein; assay: Inhibition of amyloid beta 42 (unknown origin) aggregation at 50 uM by Thioflavin T-based fluorescence assay relative to control

T2 sequence (P06276 whole entry): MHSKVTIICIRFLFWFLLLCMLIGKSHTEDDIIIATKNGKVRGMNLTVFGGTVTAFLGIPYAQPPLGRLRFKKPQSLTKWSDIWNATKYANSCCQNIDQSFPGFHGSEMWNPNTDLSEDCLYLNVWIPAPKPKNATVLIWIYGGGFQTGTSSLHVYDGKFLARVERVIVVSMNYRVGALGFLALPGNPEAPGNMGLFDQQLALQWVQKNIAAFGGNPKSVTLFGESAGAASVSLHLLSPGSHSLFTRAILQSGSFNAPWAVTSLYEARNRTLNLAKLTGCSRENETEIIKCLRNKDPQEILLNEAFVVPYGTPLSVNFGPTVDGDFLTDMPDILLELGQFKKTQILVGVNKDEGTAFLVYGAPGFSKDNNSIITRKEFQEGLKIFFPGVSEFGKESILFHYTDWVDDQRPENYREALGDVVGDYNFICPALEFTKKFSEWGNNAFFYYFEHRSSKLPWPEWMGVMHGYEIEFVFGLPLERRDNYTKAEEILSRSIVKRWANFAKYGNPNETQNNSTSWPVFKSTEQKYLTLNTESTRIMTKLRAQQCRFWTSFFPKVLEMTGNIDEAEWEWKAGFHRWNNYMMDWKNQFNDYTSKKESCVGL
T1 sequence (P22303 whole entry): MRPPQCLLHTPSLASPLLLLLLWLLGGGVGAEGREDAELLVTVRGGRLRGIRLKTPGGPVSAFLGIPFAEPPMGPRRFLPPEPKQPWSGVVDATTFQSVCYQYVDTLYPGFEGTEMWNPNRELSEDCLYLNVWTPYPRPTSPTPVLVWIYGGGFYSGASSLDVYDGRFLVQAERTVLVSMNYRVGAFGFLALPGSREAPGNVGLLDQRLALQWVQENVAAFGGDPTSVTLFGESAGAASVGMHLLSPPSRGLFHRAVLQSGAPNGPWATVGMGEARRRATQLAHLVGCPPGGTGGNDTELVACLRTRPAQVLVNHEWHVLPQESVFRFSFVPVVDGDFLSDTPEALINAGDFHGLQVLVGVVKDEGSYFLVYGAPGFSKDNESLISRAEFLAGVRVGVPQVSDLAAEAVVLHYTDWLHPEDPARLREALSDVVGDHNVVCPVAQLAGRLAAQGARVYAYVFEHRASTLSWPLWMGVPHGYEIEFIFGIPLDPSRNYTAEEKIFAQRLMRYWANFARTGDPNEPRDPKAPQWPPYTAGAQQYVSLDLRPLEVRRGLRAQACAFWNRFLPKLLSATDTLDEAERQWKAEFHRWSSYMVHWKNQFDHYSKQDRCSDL
T5 sequence (P56817 whole entry): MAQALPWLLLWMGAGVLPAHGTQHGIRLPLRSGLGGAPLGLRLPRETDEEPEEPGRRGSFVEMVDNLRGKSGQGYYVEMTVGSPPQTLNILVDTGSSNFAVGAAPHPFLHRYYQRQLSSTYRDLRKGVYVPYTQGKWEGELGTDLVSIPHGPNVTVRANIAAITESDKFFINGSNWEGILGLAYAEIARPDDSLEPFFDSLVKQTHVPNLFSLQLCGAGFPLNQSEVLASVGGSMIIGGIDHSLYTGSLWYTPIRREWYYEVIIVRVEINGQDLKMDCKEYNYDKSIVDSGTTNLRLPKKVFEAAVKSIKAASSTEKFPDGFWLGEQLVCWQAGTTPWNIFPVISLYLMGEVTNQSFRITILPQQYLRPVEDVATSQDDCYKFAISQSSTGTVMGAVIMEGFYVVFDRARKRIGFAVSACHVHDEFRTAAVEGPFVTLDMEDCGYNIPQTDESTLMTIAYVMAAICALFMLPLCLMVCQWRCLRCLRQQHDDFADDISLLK
T6 sequence (P81908 whole entry): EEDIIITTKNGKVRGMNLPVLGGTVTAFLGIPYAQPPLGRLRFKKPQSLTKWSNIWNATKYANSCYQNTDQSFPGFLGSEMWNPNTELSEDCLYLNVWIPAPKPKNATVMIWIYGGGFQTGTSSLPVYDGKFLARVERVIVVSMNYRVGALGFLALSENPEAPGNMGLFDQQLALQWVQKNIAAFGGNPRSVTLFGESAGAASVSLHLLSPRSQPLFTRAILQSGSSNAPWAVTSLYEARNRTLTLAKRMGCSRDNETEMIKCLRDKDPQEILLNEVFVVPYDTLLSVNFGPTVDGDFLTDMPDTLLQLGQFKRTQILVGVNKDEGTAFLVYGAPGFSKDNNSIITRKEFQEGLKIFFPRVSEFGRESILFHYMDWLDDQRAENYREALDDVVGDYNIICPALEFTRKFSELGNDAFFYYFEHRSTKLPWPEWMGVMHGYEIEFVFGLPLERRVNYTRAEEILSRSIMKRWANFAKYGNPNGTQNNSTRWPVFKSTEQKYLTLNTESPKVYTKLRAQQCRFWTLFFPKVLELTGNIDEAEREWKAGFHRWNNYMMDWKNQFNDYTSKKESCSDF
T3 sequence (P05067 whole entry): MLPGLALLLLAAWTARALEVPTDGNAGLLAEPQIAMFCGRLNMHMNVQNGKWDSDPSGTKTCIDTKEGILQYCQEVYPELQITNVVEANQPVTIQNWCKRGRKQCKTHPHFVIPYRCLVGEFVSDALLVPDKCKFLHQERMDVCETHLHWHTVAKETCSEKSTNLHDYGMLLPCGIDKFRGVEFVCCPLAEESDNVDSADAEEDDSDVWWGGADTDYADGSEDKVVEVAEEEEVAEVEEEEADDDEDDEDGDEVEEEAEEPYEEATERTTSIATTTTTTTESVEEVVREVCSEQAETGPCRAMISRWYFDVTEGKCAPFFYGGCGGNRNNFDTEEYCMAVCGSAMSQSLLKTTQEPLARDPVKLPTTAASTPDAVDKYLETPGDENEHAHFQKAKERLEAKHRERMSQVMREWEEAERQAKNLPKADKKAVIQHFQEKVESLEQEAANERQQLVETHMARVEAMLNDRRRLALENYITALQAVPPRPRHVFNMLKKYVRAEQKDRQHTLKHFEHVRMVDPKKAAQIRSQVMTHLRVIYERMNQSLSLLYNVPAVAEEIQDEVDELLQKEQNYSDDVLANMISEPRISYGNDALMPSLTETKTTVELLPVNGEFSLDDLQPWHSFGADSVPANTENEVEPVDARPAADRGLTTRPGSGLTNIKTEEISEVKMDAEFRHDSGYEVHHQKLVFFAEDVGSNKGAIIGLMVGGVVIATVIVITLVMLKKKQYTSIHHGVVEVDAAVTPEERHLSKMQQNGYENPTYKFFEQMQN
T4 sequence (O42275 whole entry): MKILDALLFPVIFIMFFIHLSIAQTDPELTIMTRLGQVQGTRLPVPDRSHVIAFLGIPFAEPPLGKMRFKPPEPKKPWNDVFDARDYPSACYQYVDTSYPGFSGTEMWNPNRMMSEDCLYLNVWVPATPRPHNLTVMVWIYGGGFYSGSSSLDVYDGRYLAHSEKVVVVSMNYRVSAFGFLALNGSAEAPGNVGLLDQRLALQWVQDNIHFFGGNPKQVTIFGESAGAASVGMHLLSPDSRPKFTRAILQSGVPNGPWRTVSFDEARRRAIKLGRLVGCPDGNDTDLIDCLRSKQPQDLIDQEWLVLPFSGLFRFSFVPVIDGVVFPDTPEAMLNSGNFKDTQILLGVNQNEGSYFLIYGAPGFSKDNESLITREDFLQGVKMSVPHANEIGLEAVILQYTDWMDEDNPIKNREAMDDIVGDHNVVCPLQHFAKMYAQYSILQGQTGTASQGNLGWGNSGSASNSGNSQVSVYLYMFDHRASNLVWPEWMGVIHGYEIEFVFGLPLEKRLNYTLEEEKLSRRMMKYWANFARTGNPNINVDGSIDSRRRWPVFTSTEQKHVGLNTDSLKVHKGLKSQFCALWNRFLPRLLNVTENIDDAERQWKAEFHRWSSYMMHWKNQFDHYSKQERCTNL
Chain of Acetylcholinesterase (Torpedo californica, UniProt P04058) (P04058 whole entry): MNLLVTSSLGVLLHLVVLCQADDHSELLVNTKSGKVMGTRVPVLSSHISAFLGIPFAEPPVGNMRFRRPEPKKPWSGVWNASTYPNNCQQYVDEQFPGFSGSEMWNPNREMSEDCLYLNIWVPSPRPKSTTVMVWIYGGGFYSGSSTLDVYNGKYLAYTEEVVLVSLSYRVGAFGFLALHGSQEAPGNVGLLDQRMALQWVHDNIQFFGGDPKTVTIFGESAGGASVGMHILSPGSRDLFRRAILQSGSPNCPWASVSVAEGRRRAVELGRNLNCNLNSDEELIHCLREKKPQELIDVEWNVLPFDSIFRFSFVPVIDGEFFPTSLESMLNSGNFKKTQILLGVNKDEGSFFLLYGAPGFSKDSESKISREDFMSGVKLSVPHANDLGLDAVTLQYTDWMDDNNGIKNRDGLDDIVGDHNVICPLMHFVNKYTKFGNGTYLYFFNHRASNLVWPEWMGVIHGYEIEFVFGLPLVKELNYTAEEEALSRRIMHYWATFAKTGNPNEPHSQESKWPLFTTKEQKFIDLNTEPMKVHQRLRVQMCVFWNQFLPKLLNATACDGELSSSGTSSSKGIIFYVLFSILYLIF
Chain of Microtubule-associated protein tau (Homo sapiens) (P10636 whole entry): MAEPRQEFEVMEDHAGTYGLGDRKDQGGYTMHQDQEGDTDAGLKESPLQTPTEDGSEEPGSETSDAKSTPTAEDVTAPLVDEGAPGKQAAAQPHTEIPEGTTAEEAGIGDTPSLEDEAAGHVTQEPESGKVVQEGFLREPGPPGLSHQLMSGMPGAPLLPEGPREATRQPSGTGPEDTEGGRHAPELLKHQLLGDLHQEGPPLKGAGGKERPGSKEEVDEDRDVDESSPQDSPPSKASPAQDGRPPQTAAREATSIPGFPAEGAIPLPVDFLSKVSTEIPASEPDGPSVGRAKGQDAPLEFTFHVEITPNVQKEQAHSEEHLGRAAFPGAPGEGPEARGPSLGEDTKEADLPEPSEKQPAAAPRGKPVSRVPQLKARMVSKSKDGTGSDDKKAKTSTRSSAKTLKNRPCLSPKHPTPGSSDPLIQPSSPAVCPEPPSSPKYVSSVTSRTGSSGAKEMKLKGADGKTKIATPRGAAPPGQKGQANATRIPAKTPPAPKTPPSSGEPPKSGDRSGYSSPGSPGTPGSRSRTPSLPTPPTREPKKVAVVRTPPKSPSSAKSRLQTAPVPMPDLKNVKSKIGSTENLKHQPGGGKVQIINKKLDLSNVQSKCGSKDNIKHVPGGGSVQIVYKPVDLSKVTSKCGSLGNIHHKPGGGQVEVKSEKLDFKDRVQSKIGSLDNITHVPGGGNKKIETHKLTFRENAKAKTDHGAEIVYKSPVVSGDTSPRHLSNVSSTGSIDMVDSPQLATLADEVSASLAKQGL

COC(=O)[C@H]1[C@H]2C[C@@H]3c4[nH]c5cc(OC)ccc5c4CCN3C[C@H]2C[C@@H](OC(=O)c2cc(OC)c(OC)c(OC)c2)[C@@H]1OC [RESERPINE]
IC50 (Acetylcholinesterase [1]): 1700 nM | IC50 (Cholinesterase [2]): 2800 nM | inhibition [3]: 68%

COc1ccc(/C=C/C(=O)NCCc2cc3ccccc3[nH]2)cc1OC
IC50 (Acetylcholinesterase [4]): 11.5 µM | inhibition (Beta-secretase 1 [5]): 40.7% | inhibition [6]: 10.1%

COC(=O)c1cc(C(=O)c2ccc(OC)cc2)n2ccc(CCCc3cc[n+](C)cc3)cc12
IC50 (Acetylcholinesterase [1]): 3300 nM | IC50 (Cholinesterase [2]): 38900 nM | inhibition [7]: 55%

CN(C)CCN1CCN(c2ccc(C(=O)/C=C/c3cc4ccccc4o3)cc2)CC1
inhibition [8]: 94.6%

O=C(NCCNc1c2c(nc3cc(Cl)ccc13)CCCC2)c1cc(-c2ccc(Cl)cc2)on1
IC50 (Acetylcholinesterase [9]): 52 nM | IC50 (Cholinesterase [10]): 372 nM | IC50 (Beta-secretase 1 [11]): 1650 nM | inhibition [12]: 79.4%

O=C(CCCCC1CCSS1)NCc1cn(CCCCOc2ccc3c(=O)ccoc3c2)nn1 (stereo unspecified)
IC50 (Cholinesterase [13]): 7.5 µM

O=C(Nc1ccc(Oc2ccc3ccc(=O)oc3c2)cc1)c1cc(-c2cccc([N+](=O)[O-])c2)on1
IC50 (Acetylcholinesterase [14]): 1230 nM | inhibition (Beta-secretase 1 [15]): 48.5%

COc1cccc2cc(C(=O)NCCCNc3c4c(nc5cc(Cl)ccc35)CCCC4)oc12
IC50 (Acetylcholinesterase [16]): 130 nM | inhibition [17]: 57.8%

CCc1cc(-c2nnc(Nc3ccccc3Cl)s2)c(O)cc1O
inhibition [18]: 55.8% | IC50 (Acetylcholinesterase [19]): 31 nM | IC50 (Cholinesterase [20]): 18.3 µM

CCOC(=O)C1=C(C)N(CCC2CCN(Cc3ccccc3)CC2)C(=O)NC1c1coc2c(Cl)cc(Cl)cc2c1=O (stereo unspecified)
inhibition [21]: 73.7% | IC50 (Acetylcholinesterase [22]): 60 nM | IC50 (Cholinesterase [23]): 17.3 µM | inhibition [24]: 63.6%

CCN(CCCCCCOc1ccc(/C=C/C(=O)c2c(O)cc(OC)c(O)c2OC)cc1)Cc1ccccc1OC
IC50 (Acetylcholinesterase [25]): 410 nM | inhibition [26]: 78%

O=C(CCCN(Cc1ccccn1)Cc1ccccn1)NCCCNc1c2c(nc3ccccc13)CCCC2
inhibition [27]: 71.1%

O=C(NC1CCN(Cc2ccccc2)CC1)c1cc(-c2cccc([N+](=O)[O-])c2)on1
IC50 (Acetylcholinesterase [28]): 16.1 µM | IC50 (Cholinesterase [29]): 15.2 µM | inhibition (Beta-secretase 1 [30]): 24.3%

S=C(NCCCCNc1c2c(nc3ccccc13)CCCC2)Nc1c[nH]c2ccccc12
IC50 (Acetylcholinesterase [1]): 25 nM | IC50 (Cholinesterase [2]): 76 nM

O=c1nc2sc3ccccc3n2c2ncccc12
IC50 (Acetylcholinesterase [31]): 2780 nM | inhibition [32]: 30.8%
